From PubChem BioAssay AID330 (DTP/NCI, 2004)
Several values for one entry are separate records, joined by “and”; a condition that tells them apart may be missing. Equal values may be shown once. Inconclusive results and toxic doses are left out. How the source made its calls: active means survival T/C of 150% or more; inactive means T/C below 125% in these data.

Tested on: P388 leukemia ip, CD2F1 mice, survival T/C
Assay: NCI In Vivo Anticancer Drug Screen. Data for tumor model P388 Leukemia (intraperitoneal) in CD2F1 (CDF1) mice
Conditions: endpoint: median survival time, higher = longer survival
Outline: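 Mice carrying the transplanted tumor received test compound or vehicle. Survival was recorded in each group, and the value is the treated-group measurement divided by that of the vehicle-treated control group.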

[1] = dose: 2.5 mg/kg/injection, schedule: Q01DX009 (ip), vehicle: saline
[2] = dose: 5.0 mg/kg/injection, schedule: Q01DX009 (ip), vehicle: saline
[3] = dose: 20.0 mg/kg/injection, schedule: Q01DX009 (ip), vehicle: saline
[4] = dose: 50.0 mg/kg/injection, schedule: Q01DX005 (ip), vehicle: saline with Tween-80
[5] = dose: 100.0 mg/kg/injection, schedule: Q01DX005 (ip), vehicle: saline with Tween-80
[6] = dose: 200.0 mg/kg/injection, schedule: Q01DX005 (ip), vehicle: saline with Tween-80
[7] = dose: 60.0 mg/kg/injection, schedule: Q01DX005 (ip), vehicle: saline with Tween-80
[8] = dose: 120.0 mg/kg/injection, schedule: Q01DX005 (ip), vehicle: saline with Tween-80
[9] = dose: 240.0 mg/kg/injection, schedule: Q01DX005 (ip), vehicle: saline with Tween-80
[10] = dose: 50.0 mg/kg/injection, schedule: Q01DX009 (ip), vehicle: Klucel (hydroxypropylcellulose) (HPC)
[11] = dose: 100.0 mg/kg/injection, schedule: Q01DX009 (ip), vehicle: Klucel (hydroxypropylcellulose) (HPC)
[12] = dose: 200.0 mg/kg/injection, schedule: Q01DX009 (ip), vehicle: Klucel (hydroxypropylcellulose) (HPC)

Measured: T/C

C/C=C1\C(=O)O[C@@]23C=C[C@H]4C(C(=O)OC)=CO[C@@H](O[C@H]12)[C@H]43
inactive: dose: 0.63 mg/kg/injection, schedule: Q01DX009 (ip), vehicle: Klucel (hydroxypropylcellulose) (HPC) 100 % of control | dose: 0.63 mg/kg/injection, schedule: Q01DX009 (ip), vehicle: saline 98 % of control | dose: 1.25 mg/kg/injection, schedule: Q01DX009 (ip), vehicle: Klucel (hydroxypropylcellulose) (HPC) 100 % of control | dose: 1.25 mg/kg/injection, schedule: Q01DX009 (ip), vehicle: saline 98 % of control | dose: 2.5 mg/kg/injection, schedule: Q01DX009 (ip), vehicle: Klucel (hydroxypropylcellulose) (HPC) 98 % of control | [1] 100 % of control | dose: 5.0 mg/kg/injection, schedule: Q01DX009 (ip), vehicle: Klucel (hydroxypropylcellulose) (HPC) 100 % of control | [2] 98 % of control | dose: 10.0 mg/kg/injection, schedule: Q01DX009 (ip), vehicle: saline 104 % of control | [3] 113 % of control

CC(C)OC1NC(=O)Oc2ccccc21 (configuration not stated)
inactive: [4] 104 % of control | [5] 110 % of control | [6] 113 % of control

O=C(O)CCC(=O)OC(C1CO1)C(OC(=O)CCC(=O)O)C1CO1 (configuration not stated)
inactive: [1] 90 % of control | dose: 2.5 mg/kg/injection, schedule: Q01DX009 (ip), vehicle: sodium bicarbonate 103 % of control | [2] 116 % of control | dose: 5.0 mg/kg/injection, schedule: Q01DX009 (ip), vehicle: sodium bicarbonate 101 % of control | dose: 10.0 mg/kg/injection, schedule: Q01DX009 (ip), vehicle: sodium bicarbonate 120 % of control | dose: 20.0 mg/kg/injection, schedule: Q01DX009 (ip), vehicle: sodium bicarbonate 122 % of control | dose: 320.0 mg/kg/injection, schedule: Q01DX009 (ip), vehicle: saline 87 % of control | dose: 320.0 mg/kg/injection, schedule: Q01DX009 (ip), vehicle: sodium bicarbonate 93 % of control
active: [3] 153 % of control | dose: 40.0 mg/kg/injection, schedule: Q01DX009 (ip), vehicle: saline 167 % of control | dose: 80.0 mg/kg/injection, schedule: Q01DX009 (ip), vehicle: saline 206 % of control | dose: 80.0 mg/kg/injection, schedule: Q01DX009 (ip), vehicle: sodium bicarbonate 169 % of control | dose: 160.0 mg/kg/injection, schedule: Q01DX009 (ip), vehicle: sodium bicarbonate 198 % of control

C=C1C(=O)OC2/C=C(/C)CC/C=C(\C(=O)O)CC/C=C(\C)CCC12 (configuration not stated)
inactive: dose: 100.0 mg/kg/injection, schedule: Q04DX003 (ip), vehicle: saline with Tween-80 113 % of control | dose: 200.0 mg/kg/injection, schedule: Q04DX003 (ip), vehicle: saline with Tween-80 110 % of control

Cc1nc(O)c(-c2ccc(Cl)cc2)c(=O)[nH]1
inactive: [7] 102 % of control | [8] 109 % of control

Cc1cc(O)c(Br)cc1O
inactive: dose: 50.0 mg/kg/injection, schedule: Q01DX005 (ip), vehicle: Klucel (hydroxypropylcellulose) (HPC) 100 % of control | dose: 100.0 mg/kg/injection, schedule: Q01DX005 (ip), vehicle: Klucel (hydroxypropylcellulose) (HPC) 97 % of control | dose: 200.0 mg/kg/injection, schedule: Q01DX005 (ip), vehicle: Klucel (hydroxypropylcellulose) (HPC) 97 % of control

O=C(O)CCC(=O)O
inactive: dose: 10.0 mg/kg/injection, schedule: Q01DX009 (ip), vehicle: water 90 % of control | dose: 20.0 mg/kg/injection, schedule: Q01DX009 (ip), vehicle: water 99 % of control and 109 % of control | dose: 40.0 mg/kg/injection, schedule: Q01DX009 (ip), vehicle: water 98 % of control and 94 % of control | dose: 80.0 mg/kg/injection, schedule: Q01DX009 (ip), vehicle: water 96 % of control and 91 % of control | dose: 160.0 mg/kg/injection, schedule: Q01DX009 (ip), vehicle: water 101 % of control and 102 % of control

Cc1ccc(C)c(C(O)(c2cc(C)ccc2C)C2(O)CCCCC2)c1
inactive: [4] 106 % of control | [5] 103 % of control | [6] 97 % of control

CC(C)(C)S.[Ge]
inactive: dose: 7.5 mg/kg/injection, schedule: Q01DX009 (ip), vehicle: saline with Tween-80 106 % of control | dose: 15.0 mg/kg/injection, schedule: Q01DX009 (ip), vehicle: saline with Tween-80 107 % of control | dose: 30.0 mg/kg/injection, schedule: Q01DX009 (ip), vehicle: saline with Tween-80 103 % of control

CC1(C)OC(=O)C2(O1)C(=O)C1CCCCC12C (configuration not stated)
inactive: [7] 100 % of control | [8] 95 % of control | [9] 95 % of control

NCCC[Se]CC(N)C(=O)O (configuration not stated)
inactive: dose: 12.5 mg/kg/injection, schedule: Q01DX005 (ip), vehicle: saline 100 % of control | dose: 25.0 mg/kg/injection, schedule: Q01DX005 (ip), vehicle: saline 102 % of control | dose: 25.0 mg/kg/injection, schedule: Q04DX003 (ip), vehicle: saline 95 % of control | dose: 50.0 mg/kg/injection, schedule: Q01DX005 (ip), vehicle: saline 104 % of control | dose: 50.0 mg/kg/injection, schedule: Q04DX003 (ip), vehicle: saline 111 % of control | dose: 100.0 mg/kg/injection, schedule: Q01DX005 (ip), vehicle: saline 102 % of control | dose: 100.0 mg/kg/injection, schedule: Q04DX003 (ip), vehicle: saline 110 % of control and 119 % of control

N#CC1=Cc2ccccc2OC1
inactive: dose: 100.0 mg/kg/injection, schedule: Q04DX003 (ip), vehicle: Klucel (hydroxypropylcellulose) (HPC) 108 % of control | dose: 200.0 mg/kg/injection, schedule: Q04DX003 (ip), vehicle: Klucel (hydroxypropylcellulose) (HPC) 108 % of control | dose: 400.0 mg/kg/injection, schedule: Q04DX003 (ip), vehicle: Klucel (hydroxypropylcellulose) (HPC) 105 % of control

CC(C)(C)c1cc(C(=O)O)c2soc(=O)c2c1
inactive: [10] 106 % of control | [11] 109 % of control | [12] 111 % of control

COC(=O)[C@H]1O[C@H]1c1cccc[n+]1[O-]
inactive: dose: 25.0 mg/kg/injection, schedule: Q01DX005 (ip), vehicle: water 100 % of control | dose: 50.0 mg/kg/injection, schedule: Q01DX005 (ip), vehicle: water 97 % of control | dose: 100.0 mg/kg/injection, schedule: Q01DX005 (ip), vehicle: water 100 % of control | dose: 200.0 mg/kg/injection, schedule: Q01DX005 (ip), vehicle: water 102 % of control

CC1=C2CC(=O)OC(c3ccoc3)C2(C)CCC1C1(CC(=O)O)C2COC(=O)CC2OC1(C)C (configuration not stated)
inactive: dose: 0.75 mg/kg/injection, schedule: Q01DX009 (ip), vehicle: saline + alcohol 99 % of control | dose: 1.5 mg/kg/injection, schedule: Q01DX009 (ip), vehicle: saline + alcohol 97 % of control | dose: 3.0 mg/kg/injection, schedule: Q01DX009 (ip), vehicle: saline + alcohol 106 % of control | dose: 6.0 mg/kg/injection, schedule: Q01DX009 (ip), vehicle: saline + alcohol 101 % of control

Cc1ccc(NC(=O)NCCCN2CCOCC2)cc1NC(=O)NCCCN1CCOCC1
inactive: [10] 104 % of control | [11] 100 % of control | [12] 96 % of control

CCCCCCCCS(=O)(=O)OCCCCOS(=O)(=O)CCCCCCCC
inactive: dose: 31.25 mg/kg/injection, schedule: Q01DX005 (ip), vehicle: Klucel (hydroxypropylcellulose) (HPC) 103 % of control | dose: 62.5 mg/kg/injection, schedule: Q01DX005 (ip), vehicle: Klucel (hydroxypropylcellulose) (HPC) 103 % of control | dose: 125.0 mg/kg/injection, schedule: Q01DX005 (ip), vehicle: Klucel (hydroxypropylcellulose) (HPC) 103 % of control

CCOC(=O)c1ccc(Nc2nc(NNC(=O)c3ccncc3)nc(Nc3ccc(C)cc3)n2)cc1
inactive: [7] 99 % of control | [8] 99 % of control | [9] 99 % of control
